Experimental data as given in patent US20070043118A1, “Method of treating a subject suffering from degenerative disc disease using a nitric oxide synthase inhibitor” (Discogen, LLC, priority 2005, published 2007).

Tests used:
[1] = test system: patients with chronic intractable lower back pain and positive discography; test: Biochemical injection treatment in human subjects (intradiscal injection; disability questionnaire and visual analogue pain scale); format: in vivo; details: intradiscal injection of 1 to 2 cc disc solution per involved disc
Description: Thirty patients with chronic intractable lower back pain and positive discography would participate in the study. These would be adult patients with chronic lower back pain who have been unresponsive or responded poorly to multiple previous methods of treatment, including physical therapy, multiple analgesics, injection therapy, laminectomies, fusions and intradiscal electrothermal annuloplasty (IDET) procedures. These patients would have positive discography at one or more lumbar levels and concordant pain provocation combined with morphologic disc abnormalities.
Using sterile techniques and United States Pharmacopeia-grade pharmaceuticals solutions containing the NOS inhibitors are prepared, specifically, one solution is prepared for each of GED, L-NAME, and L-NMMA. The “GED disc solution” consists of 0.3 mg/kg to 10 mg/kg GED by subject weight; 1.0 to 100 micromolar by concentration. The “L-NAME disc solution” consists of 1.0 mg/kg L-NAME by subject weight; 5.0 to 100 micromolar by concentration. The “L-NMMA disc solution” consists of 1.0 mg/kg L0NMA by subject weight; 5.0 to 100 micromolar by concentration. These concentrations are derived based on solubility and tolerance characteristics of the constituents. These are mixed with 33% nonionic contrast and 33% of 50% dextrose at the time of injection. A total of 1 to 2 cc of each solution is injected into each involved disc. All solutions are tested on separate patients. Injection promptly terminates if there is any leakage of contrast into the epidural space. Zygapophyseal joint injections are performed after fluroscopic confirmation of correct needle placement using intra-articular contrast and are performed at the same levels as the disc injections.
To avoid patient discomfort, the first series of injections are performed at the time of diagnostic discography. An intradiscal injection of 1 to 2 cc is used at each involved disc level. The levels are determined by discography. This is combined with injection of the zygapophyseal joints at the painful disc level(s) with the modified solution mixture as described above. […]

[2] = test system: disc tissue obtained from human subjects; details: in vitro; cited from earlier work

Structure (SMILES) | treatment outcome: pain and disability before and after treatment (disability questionnaire 0-24, visual analogue pain scale 0-10) [1] | level of NO present in disc tissue [2]
N=C(N)NCCSSCCNC(=N)N [GED, guanidinoethyldisulfide] | effective in treating the patients and providing symptomatic relief | –
COC(=O)[C@@H](N)CCCNC(=N)N[N+](=O)[O-] [L-NAME, nitro-L-arginine methyl ester] | effective in treating the patients and providing symptomatic relief | –
[H]/N=C(\NC)NCCC[C@H](N)C(=O)O [L-NMMA, N-monomethyl-L-arginine] | effective in treating the patients and providing symptomatic relief | reduce the level of NO present
